{
  "source": "patent US20230131899A1",
  "about": "“INHIBITORS OF MICROBIALLY INDUCED AMYLOID” (Axial Therapeutics, Inc., priority 2020, published 2023)",
  "key": {"[1]": {"tested_on": "CsgA expression in E. coli MC4100", "assay": "Monocolonized Mouse Model: csgA expression in fecal pellets by qRT-PCR", "settings": "30 mg/kg, day five of treatment, relative to mice treated with vehicle alone (FIGS. 4A-B)"}, "human α-synuclein": {"target": "T1, human α-synuclein (Homo sapiens, UniProt P37840)", "T1 construct": "the full-length gene for untagged human α-synuclein was inserted; made in house; host or cells: E. coli BL21(DE3), plasmid derived from pT7 or pET11a", "assay": "Cell-free Thioflavin T assay of α-synuclein aggregation (αSyn ThT Assay)", "format": "biochemical", "settings": "αSyn 50 μM, compounds at 100 μM", "outline": "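Inhibition is reported as 100% minus background-corrected ThT signal relative to vehicle wells, taken at 36, 47, 48 or 72 h or the last read. Reactions held 50 μM recombinant α-synuclein, 20-100 μM compound, 20-40 μM ThT and 1% DMSO. Incubation was at 37° C., shaken, with a glass bead.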"}, "[2]": {"tested_on": "CsgA expression in WT E. coli", "assay": "qRT-PCR of CsgA expression in WT E. coli", "format": "cell-based", "settings": "previously observed"}, "[3]": {"settings": "mean % inhibition of αSyn aggregation relative to DMSO control, read-out: αSyn ThT Assay % Inhibition"}, "[4]": {"settings": "class symbol, read-out: αSyn ThT Assay % Inhibition (activity range)"}},
  "note": "Where two headings read alike, the source gives them in different places.",
  "data": [
    {"molecule": "CCCN1CC(C(=O)O)n2c(c(-c3cccc(C(F)(F)F)c3)c(Cc3cccc4ccccc34)cc2=O)S1(=O)=O", "note": "(racemic) [Compound 016, 8-(naphthalen-1-ylmethyl)-6-oxo-2-propyl-9-(3-(trifluoromethyl)phenyl)-3,4-dihydro-2H,6H-pyrido[1,2-e][1,2,5]thiadiazine-4-carboxylic acid 1,1-dioxide]", "values": [
      {"measurement": "csgA expression in E. coli MC4100 monocolonized mice", "setting": "[1]", "result": "reduction of csgA expression"},
      {"measurement": "inhibition at 100 µM", "setting": "human α-synuclein; [3]", "result": 68, "unit": "%"},
      {"measurement": "inhibition at 100 µM", "setting": "human α-synuclein; [4]", "result": "> 60", "unit": "%"}
    ]},
    {"molecule": "Nc1c(Cc2cccc3ccccc23)c(-c2cccc(C(F)(F)F)c2)c2n(c1=O)C(C(=O)O)CS2", "note": "(racemic) [Compound 020, 6-amino-7-(naphthalen-1-ylmethyl)-5-oxo-8-(3-(trifluoromethyl)phenyl)-2,3-dihydro-5H-thiazolo[3,2-a]pyridine-3-carboxylic acid]", "values": [
      {"measurement": "CsgA expression via qRT-PCR", "setting": "[2]", "result": "inhibit CsgA expression"},
      {"measurement": "inhibition at 100 µM", "setting": "human α-synuclein; [3]", "result": 53, "unit": "%"},
      {"measurement": "inhibition at 100 µM", "setting": "human α-synuclein; [4]", "result": "31 to 60", "unit": "%"}
    ]},
    {"molecule": "O=C(O)C1CN(CCCCCO)S(=O)(=O)c2c(-c3cccc(C(F)(F)F)c3)c(Cc3cccc4ccccc34)c(NC3CCCC3)c(=O)n21", "note": "(centres unmarked) [Compound 122, 7-(cyclopentylamino)-2-(5-hydroxypentyl)-8-(naphthalen-1-ylmethyl)-6-oxo-9-(3-(trifluoromethyl)phenyl)-3,4-dihydro-2H,6H-pyrido[1,2-e][1,2,5]thiadiazine-4-carboxylic acid 1,1-dioxide]", "values": [
      {"measurement": "inhibition at 100 µM", "setting": "human α-synuclein; [3]", "result": 38, "unit": "%"},
      {"measurement": "inhibition at 100 µM", "setting": "human α-synuclein; [4]", "result": "31 to 60", "unit": "%"}
    ]},
    {"molecule": "CC(C)N1CC(C(=O)O)n2c(c(-c3cccc(C(F)(F)F)c3)c(Cc3cccc4ccccc34)c(NC3CCCC3)c2=O)S1(=O)=O", "note": "(centres unmarked) [Compound 123, 7-(cyclopentylamino)-2-isopropyl-8-(naphthalen-1-ylmethyl)-6-oxo-9-(3-(trifluoromethyl)phenyl)-3,4-dihydro-2H,6H-pyrido[1,2-e][1,2,5]thiadiazine-4-carboxylic acid 1,1-dioxide]", "values": [
      {"measurement": "inhibition at 100 µM", "setting": "human α-synuclein; [3]", "result": 76, "unit": "%"},
      {"measurement": "inhibition at 100 µM", "setting": "human α-synuclein; [4]", "result": "> 60", "unit": "%"}
    ]},
    {"molecule": "CCCN1CC(C(=O)O)n2c(c(-c3cccc(C(F)(F)F)c3)c(Cc3cccc4ccccc34)c(NC3CCCC3)c2=O)S1(=O)=O", "note": "(centres unmarked) [Compound 126, 7-(cyclopentylamino)-8-(naphthalen-1-ylmethyl)-6-oxo-2-propyl-9-(3-(trifluoromethyl)phenyl)-3,4-dihydro-2H,6H-pyrido[1,2-e][1,2,5]thiadiazine-4-carboxylic acid 1,1-dioxide]", "values": [
      {"measurement": "inhibition at 100 µM", "setting": "human α-synuclein; [3]", "result": 32, "unit": "%"},
      {"measurement": "inhibition at 100 µM", "setting": "human α-synuclein; [4]", "result": "31 to 60", "unit": "%"}
    ]},
    {"molecule": "CCCN1CC(C(=O)O)n2c(c(-c3cccc(C(F)(F)F)c3)c(Cc3cccc4ccccc34)c(NC3CCOCC3)c2=O)S1(=O)=O", "note": "(centres unmarked) [Compound 127, 8-(naphthalen-1-ylmethyl)-6-oxo-2-propyl-7-((tetrahydro-2H-pyran-4-yl)amino)-9-(3-(trifluoromethyl)phenyl)-3,4-dihydro-2H,6H-pyrido[1,2-e][1,2,5] thiadiazine-4-carboxylic acid 1,1-dioxide]", "values": [
      {"measurement": "inhibition at 100 µM", "setting": "human α-synuclein; [3]", "result": 67, "unit": "%"},
      {"measurement": "inhibition at 100 µM", "setting": "human α-synuclein; [4]", "result": "> 60", "unit": "%"}
    ]}
  ]
}
